Assay results reported in US6573060B1, “Methods and compositions for targeting DNA metabolic processes using aminoglycoside derivatives” (University of Virginia Patent Foundation, priority 1997, dated 2003).
“Also recorded” adds a separate entry of the source.

Assays:
[1] = tested on: LNCaP cell line; test: MTS cell survival assay, LNCaP prostate cancer cells; assay type: cell-based; conditions: Homo sapiens, 120 h, 8 wells, 5 days
Description: (§1) The effect of phosphoaminoglycosides on tumor cell growth was tested in cell culture inhibition studies. 5000 cells were plated in a total volume of 50 μl in a 96 well titer plate. After 24 hours, 50 μl of media and drugs, to the required final concentration, were added. The plates were incubated at 37° C. for 5 days. On the 5th day, the fraction of surviving cells was estimated using a non-radioactive cell proliferation assay (CellTiter 96 AQueous Cell Proliferation Assay from Promega).
This is a colorimetric assay that determines the number of viable cells. The assay measures the bioreduction of a tetrazolium compound (3-(4,5-dimethylthiazol-2-yl)-5-(3-carboxymethoxyphenyl)-2-(4-sulfophenyl)-2H-tetrazolium, inner salt; MTS), via an electron coupling reagent (phenazine methosulfate; PMS), to formazan, which is soluble in the tissue culture medium. The absorbance of formazan at 490 nm can be measured from the 96 well assay plate without additional processing. The conversion of MTS into the aqueous soluble formazan is accomplished by dehydrogenase enzymes found in metabolically active cells. The quantity of formazan product as measured by the amount of 490 nm absorbance is directly proportional to the number of living cells in culture. […] 20 μl of PMS/MTS solution was added to the cells and the plates were incubated at 37° C. for 2 hours before measuring the absorbance at 490 nm. […]

[2] = tested on: PC3 cell line; test: MTS cell survival assay, PC3 prostate cancer cells; assay type: cell-based, human; conditions: FIG. 8, day five
Description: as §1
This is a colorimetric assay that determines the number of viable cells. The assay measures the bioreduction of a tetrazolium compound (3-(4,5-dimethylthiazol-2-yl)-5-(3-carboxymethoxyphenyl)-2-(4-sulfophenyl)-2H-tetrazolium, inner salt; MTS), via an electron coupling reagent (phenazine methosulfate; PMS), to formazan, which is soluble in the tissue culture medium. The absorbance of formazan at 490 nm can be measured from the 96 well assay plate without additional processing. The conversion of MTS into the aqueous soluble formazan is accomplished by dehydrogenase enzymes found in metabolically active cells. The quantity of formazan product as measured by the amount of 490 nm absorbance is directly proportional to the number of living cells in culture. 100 μl of the PMS reagent (Promega) was mixed with 2.0 ml of MTS solution (Promega). 20 μl of PMS/MTS solution was added to the cells and the plates were incubated at 37° C. for 2 hours before measuring the absorbance at 490 nm.
In an initial experiment, four drugs (A-kanamycin, B-phosphokanamycin, C-neomycin, and D-phosphoneomycin) were added to prostate cancer cell cultures in a blind fashion. Two prostate cancer cell lines were incubated with each of the drugs and assayed for cell survivability using the MTS assay (Promega).
5000 cells were grown overnight in media and each respective drug (A-kanamycin, B-phosphokanamycin, C-neomycin, and D-phosphoneomycin) was added on the second day. […] Each point is the average of readings from three wells.

[3] = tested on: Human PC3 (prostate cancer) cells; test: Human PC3 subcutaneous tumors in nude, athymic mice, intratumoral injection; assay type: in vivo
Description: Human PC3 (prostate cancer) cells were implanted subcutaneously in nude, athymic mice. Following tumor development to a size of approximately 200 cubic millimeters, tumors were injected directly with 50 μl of 1.3 mM phosphokanamycin every Monday, Wednesday, and Friday for two weeks.
CRL: CD-lnu/nu Br mice (nude, athymic) were obtained from Charles River Animal Resources Facility. Human PC3 cells were grown in RPMI 1640 media containing 10% serum, 200 μl of this cell culture was diluted 1:1 with Matrigel (Collaborative Biomedical Products) such that the total number of cells after dilution were 2×10^6. The cells were then injected on the underside of the flank and the development of subcutaneous tumor size was monitored by measurement with Vernier calipers.
Therapy with the drugs was started when the tumor size reached 200 mm^3. The drugs were solubilized in PBS (0.35 g NaH2PO4, 1.06 g Na2HPO and 8.5 g in a total volume of 1 L, pH 7.2), pH was adjusted to 7.2 using phosphoric acid and filter sterilized before injection. 50 μl of the drug (1.3 mM phosphokanamycin) was administered by direct injection into the tumor every Monday, Wednesday, and Friday for two weeks. The tumor size was monitored by measurement with Vernier calipers. The mice were euthanized when the tumor size exceeded 1000 mm^3 or when the weight of the mice decreased by more than 15% of their starting weight. The tumor size was calculated using the following formula:
volume=[length×(width)^2]/2

[4] = tested on: Leishmania chagasi; test: Leishmania chagasi culture growth; assay type: cell-based; conditions: FIGS. 12A-B
Description: Leishmania chagasi cells were grown in HO-MEM medium to a cell density of 1×10^6 cells/ml. 50 μl of drug were mixed with 50 μl of media in the first well of a 96 well micro titer plate. Serial, two-fold dilutions were then made by taking 50 μl of the solution in the first well and diluting it into the second well and this process was repeated through the 12 wells of an entire row of the 96 well plate. This gives a 2-fold difference in the concentration of the drug between the wells in that row. This procedure was repeated for all the inhibitors. 50 μl of Leishmania chagasi, at a cell density of 1×10^6 cells/ml, was then added to the wells. The micro titer plate was incubated at 30° C. under anaerobic conditions. Cells were counted under light microscope every 24 hours after addition of drugs.

NC[C@H]1O[C@H](O[C@H]2[C@H](O)[C@@H](O[C@H]3O[C@H](CO)[C@@H](O)[C@H](N)[C@H]3O)[C@H](N)C[C@@H]2N)[C@H](O)[C@@H](OP(=O)(O)O)[C@@H]1O [phosphokanamycin, 3′-phosphokanamycin]
viability at 100 µM [1]: 109 ± 9%
effect on PC3 cells (in words) [2]: effective in killing the PC3 cells
effect on tumors (in words) ([3]; 50 μl of 1.3 mM into the tumor Mon/Wed/Fri for two weeks): tumor cells were killed; also recorded: Tumors regress in size and ultimately disappear
remote lesions (metastasis) after treatment ([3]; metastasis had occurred before treatment): no remote lesions are detected
longevity of treated mice ([3]; relative to untreated controls): significant longevity relative to the untreated controls
toxicity ([3]; treatments lasting as long as 8 weeks): no detectable toxicity
killing of Leishmania cells (in words) [4]: clearly effective in killing the cells
